# Laboratory results published in US20090197975A1, “COMPOSITIONS FORMULATED FOR SOLVENT-REGULATED DRUG RELEASE” (MIV Therapeutics Inc., priority 2005, published 2009).
# Assay: Paclitaxel composition droplets immersed in PBS for 72 hours (FIG. 3)
# Type: physicochemical
# Settings: 72 hours in PBS; DENA and DMSO present as solubilizing agents
# Source text: FIG. 3 is two photographs comparing three drug compositions formulated in accordance with the invention. Each composition comprises the drug paclitaxel formulated with different compositional ratios of solvents, namely a first solvent comprising a mixture of 70% DENA and 30% DMSO and a second solvent comprising 70% castor oil and 30% soybean oil. The left-hand composition comprises 70% of the first solvent and 30% of the second solvent; the middle composition comprises 60% of the first solvent and 40% of the second solvent; and the right-hand composition comprises 50% of the first solvent and 50% of the second solvent.
# In the example of FIG. 3, the release profile of a composition 10 comprising the water-insoluble lipophilic drug paclitaxel was investigated. Paclitaxel is a well-known chemotherapy agent. FIG. 3 compares three drug compositions comprising paclitaxel formulated with different compositional ratios of first and second solvents 14, 18. The concentration of paclitaxel is maintained at 20 weight percent in first solvent 14. In this example, first solvent 14 comprises a mixture of 70% DENA and 30% DMSO and second solvent 18 comprises 70% castor oil and 30% soybean oil. […]
compound,measurement,value
CC(=O)O[C@H]1C(=O)[C@@]2(C)[C@H]([C@H](OC(=O)c3ccccc3)[C@]3(O)C[C@H](OC(=O)[C@H](O)[C@@H](NC(=O)c4ccccc4)c4ccccc4)C(C)=C1C3(C)C)[C@]1(OC(C)=O)CO[C@@H]1C[C@@H]2O [paclitaxel],paclitaxel precipitate visually detected in the PBS,No white precipitate
